In patent EP3929184A1, “((((3-HALOPHENYL)(PHENYL)METHYL)SULFINYL)METHYL)THIOPHENE COMPOUNDS AND DIASTEREOMERIC FORMS THEREOF FOR USE IN IMPROVING COGNITIVE FUNCTIONS” (Red Bull GmbH, priority 2020, dated 2021):

Assays:
[1] = tested on: young rats; test: Reversal of scopolamine effect in young rats; type: in vivo
[2] = tested on: presynaptic cells; test: Dopamine release from presynaptic cells; type: cell-based; details: different from compounds such as Amphetamines

With `[O-][S+](Cc1cccs1)C(c1ccccc1)c1cccc(Br)c1` [2-2, 2-(((((R),(R)-3-bromophenyl)(phenyl)methyl)sulfinyl)methyl)thiophene] the “effect of compounds such as scopolamine” value [1] was “reversed” and the “release of dopamin from presynaptic cells” value [2] was “does not induce release”.
